Assay [1] deals with hiPSC-CMs. Briefly: Hypertrophic response (cell area) of hiPSC-CMs. The assay is classed as cell-based, human. The settings on record: for increase in cell area: vs vehicle. How it is done: Panels A-B show an image and graph, respectively, depicting hiPSC-CMs cultured under indication conditions and treated with vehicle, 10 μM phenylephrine (PE) or 10 μM PE and 1 μM JQ-1 (a BET Bromodomain inhibitor) for 48 hours, then fixed and stained for α-actinin (green) and Hoescht 3342 (blue). Representative images are shown in panel A. Cell area of hiPSC-CMs were quantified in panel B. Cell areas measured on 616-789 cardiomyocytes pooled from four independent inductions. Panel C is a graph depicting qPCR for B-type natriuretic peptide, normalized to 18S rRNA and shown as fold change relative to GLUC, from cDNA prepared from four independent inductions. Panels D-F depict data showing characterization of cardiac hypertrophy in Danon hiPSC-CMs under various culture conditions, and their comparison to the hypertrophy observed in human patients. In Panel D, hypertrophy (as assessed by left ventricular posterior wall thickness, LVPW) in the hearts of human patients is shown. […] Cell areas measured on 356-1056 cardiomyocytes pooled from two independent inductions. *, **, **** p<0.05, 0.01, 0.0001, Kruskal-Wallis test followed by Dunn's multiple comparison test (B,D) or one way ANOVA followed by Tukey's multiple comparison test on log2 transformed data (C).
Cell imaging studies: Cells on small unpatterned or patterned surfaces in 24 well plates were used for immunofluorescent staining. Briefly, cells were washed with PBS, then fixed either with 4% paraformaldehyde (PFA) in PBS (10 minutes at room temperature) or a 1:1 mixture of methanol and acetone (5minutes at -20° C.). After fixation, cells were washed with PBS, then permeabilized with 0.2% Triton-X 100 in PBS (10 minutes at room temperature). Methanol/acetone fixation was used for images shown in FIG. 1 (staining for α-actinin, MYBPC3, c-TNI, and MLC-2V). PFA fixation was used for all other experiments. All measurements of cell area and hypertrophy were conducted on PFA fixed cells.
For cell area measurements, cells were PFA fixed and stained for α-actinin as described above, then counterstained with HCS CellMask™ Orange (Thermo Fisher Scientific, Waltham, Mass.), diluted 1:2, 500 in PBS, for 30 minutes at room temperature.
All imaging was conducted on an EVOS FL Cell Imaging System (Thermo Fisher Scientific, Waltham, MA). All image analysis including measurements of cell area, circularity, and sarcomere length were conducted using Image J.

Assay [2] concerns adult mouse ventricular cardiomyocytes (AMVCMs). Briefly: Hypertrophic response (cell area) of adult mouse ventricular cardiomyocytes. The assay is classed as cell-based. How it is done: (§1) Panels A-B show representative images of BNP staining and quantification of BNP and pro-NT-BNP-positive hiPSC-CMs cultured and treated as described in FIGS. 12A-B. Panels C-D show representative brightfield images and cell area of AMVCMs under indicated conditions. AMVCMs were isolated from 8-12 week old adult mice then treated with vehicle, 10 μM phenylephrine (PE) or 10 μM PE and 1 μM JQ-1 for 72 hours, then fixed. **** p<0.0001, Kruskal-Wallis test followed by Dunn's multiple comparison test. Cell areas measured on 664-706 cardiomyocytes pooled from four separate cardiomyocyte isolations.
Cardiomyocyte Isolation: 15 minutes prior to beginning isolation, mice were injected with 300 μL of heparin (10,000 units/mL). Mice were then anesthetized via inhalation of isofluorane, and when becoming unresponsive to toe pinch were killed via cervical dislocation. The chest was then opened, and the heart was removed rapidly and placed in ice-cold perfusion buffer (10 mM creatine monohydrate, 30 mM Taurine, 5.6 mM Dglucose, 4.6 mM NaHCO3, 10 mM BDM, 120 mM NaCl, 15 mM KCl, 0.6 mM Na2HPO4, 0.6 mM KH2PO4, 1.2 mM MgSO4, 10 mM Hepes, filtered at 0.40 μm, pH 7.4). The heart was washed briefly in perfusion buffer, and excess fat/thymus tissue trimmed off. […] Cells were then inspected and counted, and if <60% of myocytes were rod-shaped (viable) the cells were not used for experimentation. […]

Another assay relates to myofibrils from AMVCMs. Briefly: Myofibril mechanics of AMVCMs. It is filed as cell-based, mouse. How it is done: Myofibril mechanics data from AMVCMs isolated from 8-12 week old adult mice and treated with vehicle or 10 μM PE for 72 hours before myofibril isolation. Note that rodent myofibrils display profoundly faster kinetics of both activation and relaxation at baseline compared to myofibrils from human hiPSC-CMs and cardiac tissue. *, p<0.05, Student t test. 21-26 myofibrils were isolated from three separate cardiomyocyte isolations. A complete table of myofibril mechanics data on AMVCMs can be seen in Table 6.
Cardiomyocyte Isolation: 15 minutes prior to beginning isolation, mice were injected with 300 μL of heparin (10,000 units/mL). Mice were then anesthetized via inhalation of isofluorane, and when becoming unresponsive to toe pinch were killed via cervical dislocation. The chest was then opened, and the heart was removed rapidly and placed in ice-cold perfusion buffer (10 mM creatine monohydrate, 30 mM Taurine, 5.6 mM Dglucose, 4.6 mM NaHCO3, 10 mM BDM, 120 mM NaCl, 15 mM KCl, 0.6 mM Na2HPO4, 0.6 mM KH2PO4, 1.2 mM MgSO4, 10 mM Hepes, filtered at 0.40 μm, pH 7.4). The heart was washed briefly in perfusion buffer, and excess fat/thymus tissue trimmed off. The aorta was then cannulated using a blunted 20-gauge needle, and was mounted on a Langendorff apparatus (Radnoti, Covina, Calif.) with a heating pump kept at 37° C. for the duration of the isolation (VWR International, Radnor, Pa.). Hearts were mounted on the Langendorff apparatus within 3-7 minutes of removing from the body. The heart was then perfused in retrograde fashion at a rate of 4 mL/minute, driven by a Rainin™ Rabbit peristaltic pump (Mettler Toledo, Columbus, Ohio). To remove blood from the heart's vessels, it was first perfused for 3 min using perfusion buffer. Buffer was then switched to calcium-free digestion buffer (perfusion buffer with 1.3 mg/mL collagenase II) for 3 min and was then switched to digestion buffer supplemented with […] CaCl2. Hearts were perfused with high-calcium digestion buffer for another 6 to 10 minutes, once the heart became extremely soft and compliant. The heart was then removed from the cannulating needle and placed in a 60 mm culture dish with 2.5 mL high-calcium digestion buffer. The atria and right ventricle were then removed, and the left ventricle dissociated using a pipette and forceps. Once the heart was completely dissociated, digestion was halted by the addition of 7.5 mL stopping buffer (perfusion buffer with 10% (vol/vol) FBS and […] CaCl2). The cardiomyocyte suspension was then filtered through 200-μm mesh into a 50-mL conical tube, and the culture dish washed with an additional 10 mL stopping buffer, which was then filtered into the conical tube as well. This cell suspension was then allowed to incubate for 10 minutes at room temperature, allowing a cardiomyocyterich pellet to form. The fibroblast-rich supernatant was discarded, while the pellet with was resuspended in 10 mL of stopping buffer. 100 mM CaCl2 solution was then added to this buffer in a stepwise manner, with 2-min intervals between each addition: calcium concentration was first increased to 112.5 μmol/L, then to 312.5 μmol/L, then 712.5 μmol/L, and finally to 1.4 mmol/L. The cell suspension was then centrifuged at 1,000×g for 3 min at room temperature. Cells were then inspected and counted, and if <60% of myocytes were rod-shaped (viable) the cells were not used for experimentation. Cardiomyocytes were then resuspended in plating medium [perfusion buffer with 2.5% (vol/vol) FBS, 1% (vol/vol) penicillin/streptomycin (P/S), and 1.4 mM CaCl2, and plated on either 6 well plates (for myofibril mechanics) or 24 well plates (for hypertrophy imaging) coated with 9-10 μg/mL Laminin. […]

The next assay has as its system neonatal cardiomyocytes. To be noted: in vitro; cited from earlier work.
Assay [3] deals with hiPSC-CMs. Briefly: BNP / pro-NT-BNP immunofluorescent staining of hiPSC-CMs. It is filed as cell-based, human. To be noted: GLUC hiPSC-CMs; 10 μM PE, 48 hours. How it is done:
as §1
For B-type natriuretic peptide (BNP) staining, an adaption of a previously published method was used: cells were PFA fixed, then blocked and permeabilized for 30 minutes with 5% milk/0.1% Triton X-100/PBS (blocking solution) for 30 minutes at room temperature. Cells were then incubated with pro-BNP antibody diluted in blocking solution overnight at 4° C. Cells were then washed four times in 0.05% Triton-X 100/PBS for 5 minutes, and incubated with secondary antibody diluted in blocking solution for hour at room temperature. Cells were then washed twice in 0.05% Triton-X 100/PBS for 5 minutes, counterstained with Hoescht 3342 as described above, and washed twice more.
All imaging was conducted on an EVOS FL Cell Imaging System (Thermo Fisher Scientific, Waltham, MA). […]

Assay [4] has as its system adult rat cardiac (ARVM) myofibrils. To be noted: 48 hours of PE treatment; cited from earlier work.
The subject of a further assay is adult cardiomyocytes. To be noted: in vitro, typical response; cited from earlier work.
In assay [5] the test system is myofibrils from MPAT hiPSC-CMs. Briefly: Myofibril mechanics of MPAT hiPSC-CMs. It is filed as cell-based, human. The source says: FIG. 13 is graphs showing results that indicate that phenylephrine treatment induces changes in myofibril relaxation which are similar to those observed in human hypertrophic cardiomyopathy. […] Myofibrils were isolated from 4 donor and 4 HCM hearts, with at least 6 myofibrils isolated per heart. […] 44-45 myofibrils isolated per condition, pooled from 3 independent inductions. Complete tables of myofibril data from these experiments are available in Tables 4 and 5. *, **, **** p<0.05, 0.01, 0.0001, Student's t test on log2-transformed data.
To isolate myofibrils from adult mouse cardiomyocytes and stem cell derived cardiomyocytes, cells were lysed and myofibrils prepared using an adaption from a recently described method. In brief, cells were lysed in relaxing solution with protease inhibitors and 20% (w/vol) sucrose, using a scraper. The lysed cell solution was then transferred into a microfuge tube and incubated on ice for 10 minutes with periodic vortexing. The cell/myofibril solution was then centrifuged at 1,500 g for 5 minutes at 4° C., and the cell/myofibril pellet resuspended in fresh relaxing solution with protease inhibitors. This process was repeated twice to remove any residual sucrose, and the cell/myofibril solution was then homogenized.
Myofibril mechanics were quantified using the fast solution switching technique on a custom-built experimental rig. Myofibril suspensions were plated onto a temperature controlled glass coverslip (15° C.) containing relaxing solution. Single myofibrils and myofibril bundles were then picked up from the surface of this coverslip and mounted between two glass micro-tools. One tool, the stretcher, was linked to a motor which could produce rapid changes in length (Mad City Labs, Madison, Wis.), while the second tool was a calibrated cantilevered force probe (6-8 μm/μN; frequency response 2-5 KHz), which was colored with black ink to increase probe sensitivity. After mounting myofibrils between microtools, they were stretched to 5-10% above slack myofibril length. Average sarcomere lengths and myofibril diameters were measured using ImageJ software. Mounted myofibrils were then activated and relaxed by rapidly changing the position of a double-barreled pipette simultaneously releasing activating solution (pCa 4.5) and relaxing solution (pCa 9.0) from each barrel. By rapidly changing the position of the pipette, the mounted myofibril could be induced to activate and relax. From the activation/relaxation trace produced, the following parameters were acquired: resting tension, the passive tension produced in relaxing conditions, induced by a push on the stretcher; maximum tension (mN/mm2), the greatest level of active tension generated by the myofibril at full calcium activation (pCa 4.5); activation kinetics (kAct), the rate constant of tension development following myofibril activation; reactivation kinetics (kTr), the rate constant of tension redevelopment following myofibril release/stretch to break cross bridges; slow phase relaxation kinetics (kREL,SLOVV), the kinetics of the initial slow/linear phase of myofibril relaxation, slow phase relaxation time (TLIN), the duration of the slow phase of relaxation, from the switching of the pipette to relaxing solution to the beginning of the fast phase of relaxation; fast phase relaxation kinetics (kREL,FAST), the rate constant of the fast (exponential) phase of relaxation.

[6] abbreviates: MPAT hiPSC-CMs, 10 μM PE, 48 hours, mean ± SEM.

Entries after “also recorded” stand apart in the source; their conditions may differ. Marks after values point to notes of the source that are not given here.

Results on two compounds are retold here after patent US20200362314A1, “METHODS TO PRODUCE ADULT-LIKE CARDIOMYOCYTES DERIVED FROM INDUCED PLURIPOTENT STEM CELLS FOR DRUG DISCOVERY” (THE REGENTS OF THE UNIVERSITY OF COLORADO, A BODY CORPORATE, priority 2019, published 2020).

As to `Cc1sc2c(c1C)C(c1ccc(Cl)cc1)=N[C@@H](CC(=O)OC(C)(C)C)c1nnc(C)n1-2` [JQ-1], the “effect on cell area” value with hiPSC-CMs [1] (GLUC hiPSC-CMs, 10 μM PE and 1 μM JQ-1, 48 hours) is “profoundly reduced cell area; also recorded: reduced cell area significantly beyond baseline”. Moreover, the “reduction of cell area relative to PE-treated cells” value in the assay on hiPSC-CMs [1] (MM hiPSC-CMs, 10 μM PE and 1 μM JQ-1, 48 hours) was 17%; in the assay with hiPSC-CMs [1] (MPAT hiPSC-CMs, 10 μM PE and 1 μM JQ-1, 48 hours) it was 31%. Besides, the “decrease in cell area” value in assay [2] (10 μM PE and 1 μM JQ-1, 72 hours) is on record as 11%.
As for `CNC[C@H](O)c1cccc(O)c1` [PE, phenylephrine], the “increase in cell area” value in the assay with hiPSC-CMs [1] (MM hiPSC-CMs, 10 μM PE, 48 hours) worked out at 29%. Also, the “increase in cell area” value with hiPSC-CMs [1] (MPAT hiPSC-CMs, 10 μM PE, 48 hours) was 19%. In the assay on hiPSC-CMs [1] (hiPSC-CMs cultured in glucose-containing medium (GLUC), 10 μM PE, 48 hours), the “effect on cell area” value is listed as “no effect; also recorded: no hypertrophic response”. For the same compound, in the assay with myofibrils from AMVCMs (10 μM PE, 72 hours, mean ± SEM), the Max. tens. amounted to 68.55 ± 6.39 mN/mm^2; the Rest. tens. came to 6.94 ± 1.07 mN/mm^2; the kACT stood at 4.45 ± 0.33 s⁻¹; the “kREL, FAST” value is 36.61 ± 4.59 s⁻¹. Moreover, in the assay with myofibrils from AMVCMs (10 μM PE, 72 hours, mean ± SEM), the “kREL, SLOW” value amounted to 1.83 ± 0.32 s⁻¹; the kTR was 3.12 ± 0.30 s⁻¹; the tLIN was 45.83 ± 2.58* mSec. For the same compound, the “shortening of linear phase of relaxation” value in the assay with myofibrils from AMVCMs (PE vs PBS (Table 6)) was around 10 ms. The “increase in cell area” value with neonatal cardiomyocytes is 50-100%. Further, in the assay with hiPSC-CMs [3], the “cells staining positive for BNP expression” value is given as “not increased”. Further, in assay [2] (10 μM PE, 72 hours), the “increase in cell area” value was 16%. Moreover, in assay [4], the “effect on myofibril calcium sensitivity” value is listed as “increased myofibril calcium sensitivity” and the “effect on the kinetics of myofibril activation or relaxation” value is “no effect”. Further, in the assay with adult cardiomyocytes, the “increase in cell area” value is on record as 10-30%. In addition, in assay [5] (setting [6]), the Max. tens. came to 44.04 ± 5.05 mN/mm^2; the Rest. tens. was 6.15 ± 0.90 mN/mm^2; the kACT stood at 1.03 ± 0.08 s⁻¹; the “kREL, FAST” value was 8.64 ± 0.77* s^−1. In addition, in assay [5] (setting [6]), the “kREL, SLOW” value came out at 0.58 ± 0.12 s⁻¹; the kTR amounted to 0.80 ± 0.06 s⁻¹; the tLIN is recorded as 113.6 ± 6.2**** mSec. Further, the “shortening of linear phase of relaxation” value in assay [5] (hiPSC-CMs, PE vs vehicle (Table 5)) was “more than 80 msec”.
